Starred links: 1 amine or outer side, 2 acyl side, 3 side chain; linkers in the order of their positions; H or OH if unused. Positions of bridges follow the written chain, without caps; N, C: chain ends. Non-standard residues stand in square brackets, D forms with d. Residues, ends and D or L forms follow the SMILES beside them. *: point of attachment. hPhe(3,5-F2-4-CF3) = N[C@@H](CCc1cc(F)c(C(F)(F)F)c(F)c1)C(=O)O; hPhe(3-Cl-4-CF3) = N[C@@H](CCc1ccc(C(F)(F)F)c(Cl)c1)C(=O)O; NMePhe(4-CF3) = CN[C@@H](Cc1ccc(C(F)(F)F)cc1)C(=O)O; hPhe(4-CF3) = N[C@@H](CCc1ccc(C(F)(F)F)cc1)C(=O)O; NMePhe(4-Cl) = CN[C@@H](Cc1ccc(Cl)cc1)C(=O)O; NMePhe(4-I) = CN[C@@H](Cc1ccc(I)cc1)C(=O)O; NMedβ3hAla = C[C@H](CC(=O)[*:2])N(C)[*:1]; NMeGly(cPent) = CN[C@H](C(=O)O)C1CCCC1; NMeGly(cBu) = CN[C@H](C(=O)O)C1CCC1; NMeCha = CN[C@@H](CC1CCCCC1)C(=O)O; NMeChg = CN[C@H](C(=O)O)C1CCCCC1; NMeD = CN[C@@H](CC(=O)O)C(=O)O; NMeHpra = C#CCC[C@H](NC)C(=O)O; NMeL = CN[C@@H](CC(C)C)C(=O)O; NMeV = CN[C@H](C(=O)O)C(C)C; d(β3hA) = C[C@@H](N)CC(=O)O; NMeS = CN[C@@H](CO)C(=O)O; Ac6c = NC1(C(=O)O)CCCCC1; Piperidide = C1CCN(*)CC1; Pyrrolidide = C1CCN(*)C1; Ac5c = NC1(C(=O)O)CCCC1; Aze = O=C(O)[C@@H]1CCN1; CH2CMe2OH = CC(C)(O)C*; Aib = CC(C)(N)C(=O)O; Sar = CNCC(=O)O
Key:
[1] = molecular target: T1, Kras and SOS1 (biotin-tagged human Kras loaded with GDP, His-tagged human SOS1) (Homo sapiens, UniProt P01116, G12D); assay: Protein-protein interaction inhibition between Kras and SOS1 (KrasGl2D-SOS PPI) using AlphaScreen; type: binding; settings: AlphaScreen; biotin-tagged human Kras loaded with GDP, His-tagged human SOS1; read-out: KRAS G12D-SOS PPI IC50
T1 construct: made in house; host or cells: E. coli (stated for Kras only)
T1 sequence (P01116 1-188 isoform P01116-2 G12D): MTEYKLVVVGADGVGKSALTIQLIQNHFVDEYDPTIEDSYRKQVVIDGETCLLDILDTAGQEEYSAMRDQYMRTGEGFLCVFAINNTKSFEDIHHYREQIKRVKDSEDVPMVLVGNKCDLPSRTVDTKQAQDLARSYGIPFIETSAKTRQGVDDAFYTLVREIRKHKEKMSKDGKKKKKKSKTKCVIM
Method in brief: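 AlphaScreen format: Ni donor beads capture His-SOS1, streptavidin acceptor beads capture biotinylated Kras (E. coli-expressed, GDP-loaded post-purification). Excite 680 nm, read 520-620 nm.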

[2] = tested on: Human pancreatic cancer cell line AsPC-1; assay: Measurement of AsPC-1 cell growth inhibition (AsPC-1 CGI); type: cell-based; settings: 96 h
Method in brief: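 AsPC-1 cells in 15% FBS RPMI-1640 were exposed to test compound for 96 hours at 37° C, with CellTiter-Glo as endpoint.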

| Compound | IC50 [1] [nM] | IC50 [2] [nM] |
| --- | --- | --- |
| CC[C@H](C)[C@@H]1NC(=O)[C@H](C2CCC2)N(C)C(=O)C[C@@H](C(=O)N2CCCC2)N(C)C(=O)[C@H](C2CCCCC2)N(C)C(=O)C2(CCCC2)NC(=O)[C@@H]2CCCN2C(=O)[C@H](CCc2ccc(C(F)(F)F)c(Cl)c2)NC(=O)CN(C)C(=O)[C@H](Cc2ccc(C(F)(F)F)cc2)N(C)C(=O)CN(C)C(=O)CN(C)C1=O [Compound 73] ([NMeGly(cBu)]I[Sar][Sar][NMePhe(4-CF3)][Sar][hPhe(3-Cl-4-CF3)]P[Ac5c][NMeChg][NMeD]-Pyrrolidide; lactam N-11) | 0.33 | 20 to 50 |
| CC[C@H](C)[C@@H]1NC(=O)[C@H](CC(C)C)N(C)C(=O)C[C@@H](C)N(C)C(=O)[C@H](C(C)C)N(C)C(=O)C2(CCCCC2)NC(=O)[C@@H]2CCCN2C(=O)[C@H](CCc2ccc(C(F)(F)F)c(Cl)c2)NC(=O)CN(C)C(=O)[C@H](CC2CCCCC2)N(C)C(=O)CN(C)C(=O)CN(C)C1=O [Compound 81] (cyclo([Ac6c][NMeV][NMedβ3hAla][NMeL]I[Sar][Sar][NMeCha][Sar][hPhe(3-Cl-4-CF3)]P)) | 14 | 100 to 500 |
| CC[C@H](C)[C@@H]1NC(=O)[C@H](CC(C)C)N(C)C(=O)C[C@@H](C(=O)N2CCCCC2)N(C)C(=O)[C@H](C(C)C)N(C)C(=O)C2(CCCC2)NC(=O)[C@@H]2CCCN2C(=O)[C@H](CCc2ccc(C(F)(F)F)c(Cl)c2)NC(=O)CN(C)C(=O)[C@H](CC2CCCCC2)N(C)C(=O)[C@@H]2CCN2C(=O)[C@H](COCC(C)(C)O)N(C)C1=O [Compound 86] ([NMeL]I[NMeS](CH2CMe2OH)[Aze][NMeCha][Sar][hPhe(3-Cl-4-CF3)]P[Ac5c][NMeV][NMeD]-Piperidide; lactam N-11) | 9 | 100 to 500 |
| CC[C@H](C)[C@@H]1NC(=O)[C@H](C2CCCCC2)N(C)C(=O)C[C@@H](C(=O)N2CCCCC2)N(C)C(=O)[C@H](C(C)C)N(C)C(=O)C2(CCCC2)NC(=O)[C@@H]2CCCN2C(=O)[C@H](CCc2ccc(C(F)(F)F)c(Cl)c2)NC(=O)CN(C)C(=O)[C@H](CC2CCCCC2)N(C)C(=O)CN(C)C(=O)CN(C)C1=O [Compound 106] ([NMeChg]I[Sar][Sar][NMeCha][Sar][hPhe(3-Cl-4-CF3)]P[Ac5c][NMeV][NMeD]-Piperidide; lactam N-11) | 8.9 | 100 to 500 |
| CC[C@H](C)[C@@H]1NC(=O)[C@H](CC(C)C)N(C)C(=O)C[C@@H](C(=O)N2CCCCC2)N(C)C(=O)[C@H](C(C)C)N(C)C(=O)C2(CCCC2)NC(=O)[C@@H]2CCCN2C(=O)[C@H](CCc2ccc(C(F)(F)F)cc2)NC(=O)CN(C)C(=O)[C@H](CC2CCCCC2)N(C)C(=O)CN(C)C(=O)CN(C)C1=O [Compound 108] ([NMeL]I[Sar][Sar][NMeCha][Sar][hPhe(4-CF3)]P[Ac5c][NMeV][NMeD]-Piperidide; lactam N-11) | 5 | 100 to 500 |
| C#CCC[C@H]1C(=O)N[C@@H]([C@@H](C)CC)C(=O)N(C)CC(=O)N(C)CC(=O)N(C)[C@@H](Cc2ccc(I)cc2)C(=O)N(C)CC(=O)N[C@@H](CCc2ccc(C(F)(F)F)c(Cl)c2)C(=O)N2CCC[C@H]2C(=O)NC2(CCCC2)C(=O)N(C)[C@@H](C2CCCCC2)C(=O)N(C)[C@H](C)CC(=O)N1C [Compound 110] (cyclo([Ac5c][NMeChg][NMedβ3hAla][NMeHpra]I[Sar][Sar][NMePhe(4-I)][Sar][hPhe(3-Cl-4-CF3)]P)) | 3.8 | 100 to 500 |
| CC[C@H](C)[C@@H]1NC(=O)[C@H](CC(C)C)N(C)C(=O)C[C@@H](C)NC(=O)[C@H](CC(C)C)N(C)C(=O)C(C)(C)NC(=O)[C@H](CC(C)C)N(C)C(=O)[C@H](CCc2cc(F)c(C(F)(F)F)c(F)c2)NC(=O)CN(C)C(=O)[C@H](CC2CCCCC2)N(C)C(=O)CN(C)C(=O)CN(C)C1=O [Compound 119] (cyclo([Aib][NMeL][d(β3hA)][NMeL]I[Sar][Sar][NMeCha][Sar][hPhe(3,5-F2-4-CF3)][NMeL])) | 39 | 100 to 500 |
| CC[C@H](C)[C@@H]1NC(=O)[C@H](CC(C)C)N(C)C(=O)C[C@@H](C)NC(=O)[C@H](C(C)C)N(C)C(=O)C2(CCCC2)NC(=O)[C@@H]2CCCN2C(=O)[C@H](CCc2ccc(C(F)(F)F)c(Cl)c2)NC(=O)CN(C)C(=O)[C@H](Cc2ccc(Cl)cc2)N(C)C(=O)CN(C)C(=O)CN(C)C1=O [Compound 121] (cyclo([Ac5c][NMeV][d(β3hA)][NMeL]I[Sar][Sar][NMePhe(4-Cl)][Sar][hPhe(3-Cl-4-CF3)]P)) | 5.4 | 100 to 500 |
| CC[C@H](C)[C@@H]1NC(=O)[C@H](CC(C)C)N(C)C(=O)C[C@@H](C)NC(=O)[C@H](C2CCCC2)N(C)C(=O)C2(CCCC2)NC(=O)[C@@H]2CCCN2C(=O)[C@H](CCc2ccc(C(F)(F)F)c(Cl)c2)NC(=O)CN(C)C(=O)[C@H](CC2CCCCC2)N(C)C(=O)CN(C)C(=O)CN(C)C1=O [Compound 122] (cyclo([Ac5c][NMeGly(cPent)][d(β3hA)][NMeL]I[Sar][Sar][NMeCha][Sar][hPhe(3-Cl-4-CF3)]P)) | 8.6 | 100 to 500 |

Reference: patent publication US12371454B2, “Cyclic peptide compound having Kras inhibitory action” (priority 2019, dated 2025)
